Broadly, the Ki is a dissociation constant, usually derived from enzyme kinetics or from competition with a known ligand. Broadly, the inhibition is how much of the control response was suppressed.

One assay deals with cathepsin B (Capra hircus, UniProt A0A452G2V1). In words: Inhibition of purified goat liver cathepsin B, BANA substrate, pH 6.0. It is filed as biochemical.
Another assay addresses cathepsin L (Capra hircus, UniProt A0A452FFI6). The assay is described as follows: Inhibition of purified goat liver cathepsin L, ZPheArg-4mβNA substrate, pH 6.0. It is filed as biochemical.
The target of a further assay is T1, cathepsin H (Capra hircus, UniProt A0A452G5L2).
T1 sequence (A0A452G5L2 with tags, fused parts or gaps): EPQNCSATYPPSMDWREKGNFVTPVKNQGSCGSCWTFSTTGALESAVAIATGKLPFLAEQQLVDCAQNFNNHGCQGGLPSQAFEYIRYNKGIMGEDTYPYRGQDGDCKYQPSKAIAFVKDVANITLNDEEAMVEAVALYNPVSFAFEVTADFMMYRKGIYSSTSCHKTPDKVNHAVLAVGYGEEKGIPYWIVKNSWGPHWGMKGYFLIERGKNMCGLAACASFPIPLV
In words: Inhibition of purified goat liver cathepsin H, Leu-βNA substrate, pH 7.0. It is filed as biochemical.

In the next assay the target is goat brain cathepsin B. To be noted: read-out: Ki, goat brain cathepsin B; competitive; cited from earlier work.
Another assay addresses goat brain cathepsin L. Conditions: read-out: Ki, goat brain cathepsin L; cited from earlier work.

As to `NC(=O)N1N=C(c2ccccc2)CC1c1ccc([N+](=O)[O-])cc1` (centres unmarked) [Compound 3h], the Ki on cathepsin B came out at 39 ± 0.03 µM; on cathepsin L, 16.9 ± 0.3 nM; on cathepsin H, 60 ± 0.3 µM.
For `NC(=O)N/N=C(/C=C/c1ccc(Cl)cc1)c1ccccc1` [Compound 2c, (1Z)-1-((E)-3-(4-chlorophenyl)-1-phenylallylidene)semicarbazide], the Ki is 27.3 ± 0.4 µM at cathepsin B, 1.17 ± 0.02 nM at cathepsin L and 29 ± 0.5 µM on cathepsin H.
As for `NC(=O)N1N=C(c2ccccc2)CC1c1ccccc1` (centres unmarked) [Compound 3i], the inhibition constant Ki is 52.4 ± 0.01 µM on cathepsin B, 86.2 ± 0.2 nM on cathepsin L and 192 ± 0.4 µM on cathepsin H.
On the same counts, the results for `O=C(/C=C/c1cccc(Cl)c1)c1ccccc1` [Compound 1b, (E)-3-(3-chlorophenyl)-1-phenylprop-2-en-1-one] are 130 ± 2 µM, 0.04 ± 0.0001 nM and 312 ± 2 µM.
`COc1ccc(C2CC(c3ccccc3)=NN2C(N)=O)cc1` (centres unmarked) [Compound 3f]: the results for the Ki at cathepsin B, on cathepsin L and on cathepsin H were 69.3 ± 0.07 µM, 0.5 ± 0.002 nM and 48 ± 0.2 µM, respectively.
For the molecule `O=C(/C=C/c1cccc([N+](=O)[O-])c1)c1ccccc1` [Compound 1g, (E)-3-(3-nitrophenyl)-1-phenylprop-2-en-1-one], the Ki on cathepsin B was 100 ± 1 µM; on cathepsin L, 2.05 ± 0.03 nM; at cathepsin H it was 60 ± 0.2 µM.
On the same counts, the results for `COc1cccc(C2CC(c3ccccc3)=NN2C(N)=O)c1` (centres unmarked) [Compound 3e] are 34.9 ± 0.1 µM, 8.2 ± 0.06 nM and 43 ± 0.1 µM.
On to `CC(=O)N[C@@H](CC(C)C)C(=O)N[C@@H](CC(C)C)C(=O)N[C@H](C=O)CCCNC(=N)N` [Leupeptin, reference compound], for which, at cathepsin B (read-out: % inhibition of cathepsin B), the inhibition at 1 µM is about 98.8%. Moreover, on cathepsin L (read-out: % inhibition of cathepsin L), the inhibition at 0.001 µM amounted to 89.2%. Also, the Ki on goat brain cathepsin B is 0.0125 µM; on goat brain cathepsin L, 0.00145 µM. For the same molecule, at cathepsin H (read-out: % inhibition of cathepsin H), the inhibition at 10 µM was about 52%.
Regarding `NC(=O)N/N=C(\C=C\c1ccc(Cl)cc1)c1ccccc1` [2c′, (1E)-1-((E)-3-(4-chlorophenyl)-1-phenylallylidene)semicarbazide], the inhibitory constant (Ki) came out at 36.4 ± 0.5 µM at cathepsin B, 0.93 ± 0.007 nM at cathepsin L and 21 ± 0.2 µM at cathepsin H.
Turning to `O=C(/C=C/c1ccccc1Cl)c1ccccc1` [Compound 1a, (E)-3-(2-chlorophenyl)-1-phenylprop-2-en-1-one], the figures for the Ki at cathepsin B, at cathepsin L and on cathepsin H were 19.5 ± 0.2 µM, 6 ± 0.02 nM and 110 ± 1 µM, respectively.
In the same order, the values of `NC(=O)N/N=C(/C=C/c1ccccc1Cl)c1ccccc1` [Compound 2a, (1Z)-1-((E)-3-(2-chlorophenyl)-1-phenylallylidene)semicarbazide] are 0.207 ± 0.001 µM, 1.78 ± 0.02 nM and 43 ± 0.2 µM.
In the same order, the values of `NC(=O)N/N=C(\C=C\c1ccccc1Cl)c1ccccc1` [2a′, (1E)-1-((E)-3-(2-chlorophenyl)-1-phenylallylidene)semicarbazide] are 2.7 ± 0.04 µM, 0.04 ± 0.0003 nM and 33 ± 0.4 µM.
As for `COc1ccccc1C1CC(c2ccccc2)=NN1C(N)=O` (centres unmarked) [Compound 3d], the values for the Ki on cathepsin B, at cathepsin L and at cathepsin H were 14.8 ± 0.07 µM, 217 ± 4 nM and 40 ± 0.1 µM, respectively.
In the same order, the values of `Cc1ccc(C2CC(c3ccccc3)=NN2C(N)=O)cc1` (centres unmarked) [Compound 3j] are 116 ± 2 µM, 23.4 ± 0.2 nM and 48 ± 0.5 µM.
On the same counts, the results for `NC(=O)N1N=C(c2ccccc2)CC1c1ccc(Cl)cc1` (centres unmarked) [Compound 3c] are 39 ± 0.2 µM, 33 ± 0.1 nM and 66 ± 0.4 µM.
With `NC(=O)N1N=C(c2ccccc2)CC1c1ccccc1Cl` (centres unmarked) [Compound 3a, 5-(2′-chlorophenyl)-3-phenyl-2-pyrazoline-1-carboxamide], the inhibition constant (Ki) on cathepsin B worked out at 9.4 ± 0.03 µM; at cathepsin L it was 31.6 ± 0.4 nM; on cathepsin H, 60 ± 0.3 µM.
Regarding `NC(=O)N1N=C(c2ccccc2)CC1c1cccc(Cl)c1` (centres unmarked) [Compound 3b, 5-(3′-chlorophenyl)-3-phenyl-2-pyrazoline-1-carboxamide], the inhibition constant (Ki) came out at 82.7 ± 1 µM at cathepsin B, 50.5 ± 0.3 nM on cathepsin L and 25 ± 0.5 µM on cathepsin H.
Consider `NC(=O)N/N=C(/C=C/c1cccc([N+](=O)[O-])c1)c1ccccc1` [Compound 2g, (1Z)-1-((E)-3-(3-nitrophenyl)-1-phenylallylidene)semicarbazide], for which the Ki was 41.3 ± 0.5 µM at cathepsin B, 2.05 ± 0.02 nM on cathepsin L and 23 ± 0.3 µM at cathepsin H.
In the same order, the values of `NC(=O)N1N=C(c2ccccc2)CC1c1cccc([N+](=O)[O-])c1` (centres unmarked) [Compound 3g, 5-(3′-nitrophenyl)-3-phenyl-2-pyrazoline-1-carboxamide] are 58.1 ± 0.05 µM, 0.4 ± 0.005 nM and 38 ± 0.2 µM.
